A short description of data set [1]: Metabolic stability test: liver microsomal stability assay. The format is in vitro ADME, mouse. As to conditions: mouse liver microsomes 0.5 mg protein/mL, compound 1 µM; for microsomal CLint at 1 µM: male, pH 7.4, presence of NADPH, read-out: Mouse Hepatic Microsome CLh,int NADPH(+); for Mouse Hepatic Microsome CLh,int NADPH(-): absence of NADPH. (In general: Liver microsomes are a subcellular fraction often used to study metabolism.)

A short description of data set [2]: Membrane permeability test using Caco-2 cells with preincubation. Format: in vitro ADME. To be noted: Caco-2; preincubation 20 to 24 hours; Apical FaSSIF/HBSS pH 6.0, Basal HBSS 4% BSA pH 7.4; 180 minutes; read-out: Caco2 Papp. For orientation: Passage across Caco-2 layers is used to estimate intestinal permeability.
The test system of another data set is Caco-2 cells. The description is as above. The format is in vitro ADME. As to conditions: Caco-2 cells, preincubation 20 to 24 hours; apical FaSSIF/HBSS 1% DMSO pH 6.0, basal HBSS 4% BSA pH 7.4; basal sample at 180 minutes.
Data set [3] in a line: Mouse PK test: plasma concentration after intravenous or oral administration. The format is in vivo, mice (C57BL/6J). As to conditions: C57BL/6J, male mice; for AUC(0-inf): read-out: AUCinf; for clearance: read-out: CL; for Vd: read-out: Vss; for half-life: read-out: t1/2 (converted); for bioavailability: oral 50 mg/kg vs intravenous 1 mg/kg, read-out: F; for Cmax: read-out: Cmax; for Tmax: read-out: Tmax. How it is done: We evaluated the plasma concentration changes after intravenous or oral administration of four types of peptides that satisfy these conditions to mice.
To male mice (C57BL/6J, 10 weeks old, purchased from Charles River Laboratories Japan, Inc.: 3 mice per group), the compound was administered intravenously at a dose of 1 mg/kg or orally at a dose of 50 mg/kg, and blood was collected from the jugular vein over time up to 24 hours after administration. The collected blood was dispensed into tubes that were pre-treated with heparin as an anticoagulant. Plasma was separated from the blood by centrifugation, and after deproteinization with acetonitrile, the plasma concentration of the compound was measured with an LC/MS/MS device (XEVO TQ-XS, manufactured by Waters Corporation).

Where [4] appears, read: plasma, intravenous administration, 1 mg/kg.
Where [5] appears, read: plasma, oral administration, 50 mg/kg.
Where [6] appears, read: in vivo, intravenous administration, 1 mg/kg.
Where [7] appears, read: in vivo, oral administration, 50 mg/kg.

Molecules are shown by their SMILES. Where two headings read alike, the source gives them in different places. Starred links: 1 amine or outer side, 2 acyl side, 3 side chain; linkers in the order of their positions; H or OH if unused. Positions of bridges follow the written chain, without caps; N, C: chain ends. Non-standard residues stand in square brackets, D forms with d. Residues, ends and D or L forms follow the SMILES beside them. *: point of attachment. NMedβ3hAla = C[C@H](CC(=O)[*:2])N(C)[*:1]; NMeF = CN[C@@H](Cc1ccccc1)C(=O)O; NMeI = CC[C@H](C)[C@H](NC)C(=O)O; NMeT = CN[C@H](C(=O)O)[C@@H](C)O; hPhe = N[C@@H](CCc1ccccc1)C(=O)O; NMeβAla = CN(CCC(=O)[*:2])[*:1]; NMeD = CN[C@@H](CC(=O)O)C(=O)O; NMeL = CN[C@@H](CC(C)C)C(=O)O; NMeV = CN[C@H](C(=O)O)C(C)C; d(β3hA) = C[C@@H](N)CC(=O)O; NMeAbu = CC[C@H](NC)C(=O)O; NMeA = CN[C@@H](C)C(=O)O; Piperidide = C1CCN(*)CC1; Abu = CC[C@H](N)C(=O)O; NBuGly = CCCCNCC(=O)O; Sar = CNCC(=O)O; tBu = CC(C)(C)*

Broadly, the Cmax is the peak of the concentration-time curve. The Tmax is the time from dosing to the highest level.

Take `CC[C@H](C)[C@@H]1NC(=O)[C@H](CC(C)C)N(C)C(=O)C[C@@H](C)NC(=O)[C@H](C(C)C)N(C)C(=O)[C@H](COC(C)(C)C)NC(=O)[C@H](CC)N(C)C(=O)[C@H](Cc2ccccc2)N(C)C(=O)[C@H](CC(C)C)NC(=O)[C@@H]2CCCN2C(=O)[C@H]([C@@H](C)O)N(C)C(=O)[C@H](CC(C)C)N(C)C(=O)[C@H](CC)N(C)C(=O)[C@H](C(C)C)NC(=O)[C@H](CC(C)C)N(C)C1=O` [pd057] (cyclo(I[NMeL]V[NMeAbu][NMeL][NMeT]PL[NMeF][NMeAbu]S(tBu)[NMeV][d(β3hA)][NMeL])): in data set [1], the microsomal CLint at 1 µM was determined as 50.4 µL/min/mg and the “Mouse Hepatic Microsome CLh,int NADPH(-)” value was 44.8 µL/min/mg Protein. The Papp A→B in data set [2] was found to be 1.16 ×10⁻⁶ cm/s. Further, the “Caco2 Papp (10^-6 cm/sec)” value in the data set with Caco-2 cells was 1.16 10^-6 cm/sec. In data set [3] (setting [4]), the AUC(0-inf) was found to be 1200 ng·h/mL, the clearance amounted to 14 mL/min/kg, the Vd is 11 L/kg and the half-life was 12 h. Moreover, the bioavailability in data set [3] (plasma) stood at 33%. Besides, in data set [3] (setting [5]), the AUC(0-inf) came out at 20000 ng·h/mL, the peak concentration (Cmax) turned out to be 2200 ng/mL, the time of peak concentration (Tmax) stood at 2.7 h and the half-life is 6.6 h.
On to `CC[C@@H]1NC(=O)[C@H](CC(C)C)N(C)C(=O)[C@H](COC(C)(C)C)NC(=O)[C@H]([C@@H](C)CC)N(C)C(=O)[C@H](CCc2ccccc2)NC(=O)[C@H](Cc2ccccc2)N(C)C(=O)[C@H](C(C)C)NC(=O)[C@H](CC(C)C)N(C)C(=O)[C@H](CC(C)C)NC(=O)CCN(C)C(=O)C[C@@H](C)N(C)C(=O)CN(C)C(=O)[C@H](CC(C)C)N(C)C(=O)[C@@H]2CCCN2C1=O` [pd065] (cyclo([Abu]P[NMeL][Sar][NMedβ3hAla][NMeβAla]L[NMeL]V[NMeF][hPhe][NMeI]S(tBu)[NMeL])), for which, in data set [1], the microsomal CLint at 1 µM is 41.7 µL/min/mg and the “Mouse Hepatic Microsome CLh,int NADPH(-)” value was found to be 40.2 µL/min/mg Protein. The Papp A→B in data set [2] worked out at 0.54 ×10⁻⁶ cm/s. Moreover, in the data set on Caco-2 cells, the “Caco2 Papp (10^-6 cm/sec)” value is given as 0.54 10^-6 cm/sec. In data set [3] (setting [6]), the AUC(0-inf) is 8700 ng·h/mL, the clearance was 1.9 mL/min/kg, the Vd is 0.57 L/kg and the half-life is 5.4 h. Also, in data set [3] (in vivo), the bioavailability came out at 26%. In data set [3] (setting [7]), the AUC(0-inf) stood at 110000 ng·h/mL, the Cmax is 11000 ng/mL, the time to peak (Tmax) stood at 2.7 h and the half-life was 5.8 h.
Regarding `CC[C@@H]1NC(=O)[C@H](CC(C)C)N(C)C(=O)[C@H]([C@@H](C)O)NC(=O)[C@H](C(C)C)N(C)C(=O)[C@H](Cc2ccccc2)N(C)C(=O)[C@@H](C(C)C)NC(=O)C[C@@H](C(=O)N2CCCCC2)N(C)C(=O)CN(C)C(=O)[C@H](Cc2ccccc2)N(C)C(=O)[C@H](C)N(C)C(=O)[C@H](COC(C)(C)C)NC(=O)[C@H](CC(C)C)N(C)C(=O)CN(C)C1=O` [pd162] ([dV][NMeF][NMeV]T[NMeL][Abu][Sar][NMeL]S(tBu)[NMeA][NMeF][Sar][NMeD]-Piperidide; lactam N-13), in data set [1], the microsomal CLint at 1 µM is 12.5 µL/min/mg and the “Mouse Hepatic Microsome CLh,int NADPH(-)” value worked out at 16.3 µL/min/mg Protein. In addition, in data set [2], the Papp A→B was 0.51 ×10⁻⁶ cm/s. Further, the “Caco2 Papp (10^-6 cm/sec)” value with Caco-2 cells is reported as 0.51 10^-6 cm/sec.
The like results for `CC[C@@H]1NC(=O)[C@H](Cc2ccccc2)N(C)C(=O)[C@H](CC(C)C)N(C)C(=O)[C@H](CC(C)C)NC(=O)[C@H](C)N(C)C(=O)C[C@@H](C(=O)N2CCCCC2)N(C)C(=O)[C@H](CC(C)C)N(C)C(=O)[C@H]([C@@H](C)CC)NC(=O)[C@H](Cc2ccccc2)N(C)C(=O)[C@H]([C@@H](C)O)N(C)C(=O)[C@H]([C@@H](C)CC)N(C)C(=O)[C@H](CC(C)C)NC(=O)CN(C)C1=O` [pd163] ([NMeA]L[NMeL][NMeF][Abu][Sar]L[NMeI][NMeT][NMeF]I[NMeL][NMeD]-Piperidide; lactam N-13) were, in that order, 28.2 µL/min/mg, 36.5 µL/min/mg Protein, 0.04 ×10⁻⁶ cm/s and 0.04 10^-6 cm/sec.
In the same order, the values of `CC[C@H](C)[C@@H]1NC(=O)[C@@H]2CCCN2C(=O)[C@H](C(C)C)N(C)C(=O)[C@H](CC(C)C)N(C)C(=O)C[C@@H](C(=O)N2CCCCC2)N(C)C(=O)[C@H](CC(C)C)NC(=O)[C@H](CC(C)C)N(C)C(=O)[C@H](C)NC(=O)[C@@H]2CCCN2C(=O)[C@H]([C@@H](C)O)NC(=O)[C@H](CC(C)C)N(C)C(=O)CN(C)C(=O)[C@H](Cc2ccccc2)N(C)C1=O` [pd164] ([NMeL][NMeV]PI[NMeF][Sar][NMeL]TPA[NMeL]L[NMeD]-Piperidide; lactam N-13) are 14.6 µL/min/mg, 10.0 µL/min/mg Protein, 0.06 ×10⁻⁶ cm/s and 0.06 10^-6 cm/sec.
The like results for `CC[C@H](C)[C@@H]1NC(=O)CN(C)C(=O)C[C@@H](C(=O)N2CCCCC2)N(C)C(=O)[C@H](Cc2ccccc2)N(C)C(=O)[C@H](CC(C)C)N(C)C(=O)[C@H]([C@@H](C)O)NC(=O)[C@H](CC(C)C)N(C)C(=O)[C@H](CC(C)C)NC(=O)[C@H](C(C)C)N(C)C(=O)[C@H](C)N(C)C(=O)[C@H](CC(C)C)N(C)C(=O)[C@H](CCc2ccccc2)NC(=O)[C@H](CC(C)C)N(C)C1=O` [pd165] ([Sar]I[NMeL][hPhe][NMeL][NMeA][NMeV]L[NMeL]T[NMeL][NMeF][NMeD]-Piperidide; lactam N-13) were, in that order, 40.9 µL/min/mg, 27.2 µL/min/mg Protein, 0.1 ×10⁻⁶ cm/s and 0.10 10^-6 cm/sec.
On to `CC[C@H](C)[C@@H]1NC(=O)[C@H](CC(C)C)N(C)C(=O)[C@H](CC(C)C)NC(=O)CCN(C)C(=O)C[C@@H](C(=O)N2CCCCC2)N(C)C(=O)[C@H](CC(C)C)N(C)C(=O)[C@H](C)N(C)C(=O)[C@H]([C@@H](C)O)N(C)C(=O)[C@H](CC(C)C)N(C)C(=O)[C@H](COC(C)(C)C)NC(=O)[C@H](Cc2ccccc2)N(C)C(=O)[C@H](CC(C)C)N(C)C(=O)[C@H](Cc2ccccc2)N(C)C1=O` [pd166] ([NMeβAla]L[NMeL]I[NMeF][NMeL][NMeF]S(tBu)[NMeL][NMeT][NMeA][NMeL][NMeD]-Piperidide; lactam N-13), for which, in data set [1], the microsomal CLint at 1 µM came to 32.4 µL/min/mg and the “Mouse Hepatic Microsome CLh,int NADPH(-)” value turned out to be 34.0 µL/min/mg Protein. The Papp A→B in data set [2] was 0.13 ×10⁻⁶ cm/s. Also, the “Caco2 Papp (10^-6 cm/sec)” value with Caco-2 cells was 0.13 10^-6 cm/sec.
In the case of `CC[C@@H]1NC(=O)[C@H](Cc2ccccc2)N(C)C(=O)[C@H]([C@@H](C)O)NC(=O)[C@H](CC(C)C)N(C)C(=O)[C@H](C)N(C)C(=O)C[C@@H](C(=O)N2CCCCC2)N(C)C(=O)[C@H](CC(C)C)N(C)C(=O)[C@H]([C@@H](C)CC)N(C)C(=O)CN(C)C(=O)[C@H](CC(C)C)NC(=O)[C@H](Cc2ccccc2)N(C)C(=O)[C@H](CC(C)C)N(C)C(=O)[C@H]([C@@H](C)CC)N(C)C1=O` [pd167] ([NMeA][NMeL]T[NMeF][Abu][NMeI][NMeL][NMeF]L[Sar][NMeI][NMeL][NMeD]-Piperidide; lactam N-13), in data set [1], the microsomal CLint at 1 µM amounted to 35.9 µL/min/mg and the “Mouse Hepatic Microsome CLh,int NADPH(-)” value is 33.0 µL/min/mg Protein. Further, in data set [2], the Papp A→B amounted to 0.23 ×10⁻⁶ cm/s. The “Caco2 Papp (10^-6 cm/sec)” value in the data set on Caco-2 cells was 0.23 10^-6 cm/sec.
With `CCCCN1CC(=O)N(C)[C@@H](Cc2ccccc2)C(=O)N[C@@H](CC(C)C)C(=O)N(C)[C@@H](C(C)C)C(=O)N(C)[C@@H](C)C(=O)N[C@@H](COC(C)(C)C)C(=O)N(C)[C@@H](CC)C(=O)N(C)[C@H](C(=O)N2CCCCC2)CC(=O)N(C)CC(=O)N(C)[C@@H](Cc2ccccc2)C(=O)N[C@@H]([C@@H](C)CC)C(=O)N(C)[C@@H](CC(C)C)C(=O)N(C)[C@@H]([C@@H](C)O)C1=O` [pd168] ([Sar][NMeF]I[NMeL][NMeT][NBuGly][NMeF]L[NMeV][NMeA]S(tBu)[NMeAbu][NMeD]-Piperidide; lactam N-13), in data set [1], the microsomal CLint at 1 µM came out at 21.9 µL/min/mg and the “Mouse Hepatic Microsome CLh,int NADPH(-)” value came to 21.8 µL/min/mg Protein. Also, the Papp A→B in data set [2] came to 1.11 ×10⁻⁶ cm/s. Moreover, the “Caco2 Papp (10^-6 cm/sec)” value in the data set on Caco-2 cells is recorded as 1.11 10^-6 cm/sec.

Source of the values: patent EP4768499A1, “MACROCYCLIC PEPTIDE COMPOUND HAVING CELL MEMBRANE PERMEABILITY AND METABOLIC STABILITY, AND LIBRARY CONTAINING SAME” (Chugai Seiyaku Kabushiki Kaisha, priority 2023, dated 2025).
